Patent US9187458B2, “Cyanoquinoline derivatives” (Tianjin Hemay Bio-Tech Co., LTD., priority 2010, dated 2015)

Experiments:
BxPc-3 cells = assay: BxPc-3 Cell Growth Inhibition Test (MTT Assay); format: cell-based; details: Homo sapiens, 72 h incubation
Experimental: BxPc-3 Cell Growth Inhibition Test (MTT Assay) Cell strains: BxPC-3 (human pancreatic cancer cell strains); Culture medium: 90% RPMI-1640+10% FBS; 1. A plate (10 cm) of cells in logarithmic growth phase normally cultured was collected; 2. The culture solution was sucked out. […] The plate was washed with 5 ml of PBS 1-2 times; 3. PBS was sucked out. 1.5 ml of 0.25% pancreatin was added to infiltrate the cells for 1 min; 4. The pancreatin was sucked out. The culture plate was placed in an incubator. Digestion was carried out for about 5 min at 37° C.; 5. 4.5 ml of complete culture solution was added to the culture plate to stop the digestion. The cells were carefully scoured with micropipette (1 ml) to give a uniform cell suspension. The suspension was implanted into a 96-well cell culture plate by 5000 cells/100 μl per well. The culture plate was incubated overnight under 5% CO2 at 37° C. In day 2, 100 μl of culture solution comprising a compound was added in each well, and further incubated for 72 h under 5% CO2 at 37° C. 6. The culture solution was sucked out; 7. 100 μl of serum-free culture solution containing 0.5 mg/ml MTT was added in each well, and incubated for 3 h; 8. The culture solution was carefully sucked out; 9. 100 μl of DMSO was added in each well and vibrated to dissolve; 10. OD values were determined at […]. 1. Calculation of Relative Inhibition Ratio The inhibition ratio of a compound on cell growth=(PC−n)/(PC−NC)×100% IC50: Concentration of a compound where inhibition ratio was 50%. IC50 values were fitted with Origin7.5.

NCI-H358 cells = assay: NCI-H358 Cell Growth Inhibition Test (MTT Assay); format: cell-based; details: Homo sapiens, 72 h incubation
Experimental: NCI-H358 Cell Growth Inhibition Test (MTT Assay)
Cell strains: NCI-H358 (human non-small cell lung cancer cell strains);
(§1) 1. A plate (10 cm) of cells in logarithmic growth phase normally cultured was collected;
(§2) 2. The culture solution was sucked out. The plate was washed with 5 ml of PBS 1-2 times;
(§3) 3. PBS was sucked out. 1.5 ml of 0.25% pancreatin was added to infiltrate the cells for 1 min;
4. The culture plate was placed in an incubator. Digestion was carried out for about 5 min at 37° C.;
5. 3 ml of complete culture solution was added to the culture plate to stop the digestion. Tthe cells were carefully scoured with micropipette (1 ml) to give a uniform cell suspension. The suspension was implanted into a 96-well cell culture plate by 10000 cells/100 […] per well. The culture plate was incubated overnight under 5% CO2 at 37° C. In day 2, 100 μA of culture solution comprising a compound was added in each well, and further incubated for 72 h under 5% CO2 at 37° C.
(§4) 6. The culture solution was sucked out;
7. 100 μA of serum-free culture solution containing 0.5 mg/ml MTT was added in each well, and incubated for 3 h;
(§5) 8. The culture solution was carefully sucked out;
9. 100 μA of DMSO was added in each well and vibrated to dissolve;
(§6) 10. OD values were determined at 490 nM.
(§7) 1. Calculation of Relative Inhibition Ratio The inhibition ratio of a compound on cell growth=(PC−n)/(PC−NC)×100%
(§8) IC50: Concentration of a compound where inhibition ratio was 50%. IC50 values were fitted with Origin7.5.

BT-474 cells = assay: BT-474 Cell Growth Inhibition Test (SRB Assay); format: cell-based, human; details: Homo sapiens, 70 h incubation
In short: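 Human breast tumour BT-474 cells (1×10^5/ml seeding, overnight) exposed to compound 70 h at 37 °C, 5% CO2; TCA-fixed, SRB-stained, dye dissolved in 10 mM Tris and OD read at 570 nm. Inhibition ratio = (PC−n)/(PC−NC)×100%; IC50 is the concentration giving 50% inhibition, from fitted curves.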

SK-OV-3 cells = assay: SK-OV-3 Cell Growth Inhibition Test (MTT Assay); format: cell-based; details: Homo sapiens, 72 h incubation
Experimental: SK-OV-3 Cell Growth Inhibition Test (MTT Assay)
Cell strains: SK-OV-3 (human ovarian cancer cell strains);
Culture medium: 90% McCoy's 5A+10% FBS;
as §1, §2, §3
4. The pancreatin was sucked out. The culture plate was placed in an incubator. Digestion was carried out for about 5 min at 37° C.;
5. 4.5 ml of complete culture solution was added to the culture plate to stop the digestion.T the cells were carefully scoured with micropipette (1 ml) to give a uniform cell suspension. The suspension was implanted into a 96-well cell culture disc by 4000 cells/100 μl per well. The culture plate was incubated overnight under 5% CO2 at 37° C. In day 2, 100 μl of culture solution comprising a compound was added in each well, and further incubated for 72 h under 5% CO2 at 37° C.
as §4
7. 100 μl of serum-free culture solution containing 0.5 mg/ml MTT was added in each well, and incubated for 3 h;
as §5
9. 100 μl of DMSO was added in each well and vibrated to dissolve;
as §6, §7, §8

MDA-MB-453 cells = assay: MDA-MB-453 Cell Growth Inhibition Test (SRB Assay); format: cell-based; details: Homo sapiens, 72 h incubation
Experimental: MDA-MB-453 Cell Growth Inhibition Test (SRB Assay)
Cell strains: MDA-MB-453 (human breast cancer cell strains);
SRB: 0.4% (w/v) working solution was formulated with 1% glacial acetic acid, reserved at 4° C.; antitumor compounds; DMSO
Culture medium: 90% L15+10% FBS;
as §1
2. The culture solution was sucked out. The plate was washed with 5 mL of PBS 1-2 times;
3. 1.5 mL of 0.25% pancreatin was added to the plate to infiltrate the cells;
4. The pancreatin was sucked out. The culture plate was placed in an incubator. Digestion was carried out for about 3 min at 37° C.;
5. 4 mL of complete culture solution was added to the culture plate to stop the digestion. The cells were carefully scoured with micropipette (1 ml) to give a uniform single cell suspension. The suspension was implanted into a 96-well cell culture plate by 7000 cells/100 μl per well. The culture plate was incubated overnight under 5% CO2 at 37° C. In day 2, 100 μl of culture solution comprising a compound was added in each well, and further incubated for 72 h under 5% CO2 at 37° C.;
6. The culture solution was sucked out. 100 uL of TCA fixed cells which were diluted to 10% were added to each well. The plate was kept in a refrigerator for 1 h at 4° C.
7. TCA stationary liquid was sucked out. […]
13. OD values were determined at […]. […]

SMILES: CN1CCC(Oc2cc3ncc(C#N)c(Nc4ccc(Oc5ccccc5)nc4)c3cc2NC(=O)/C=C2/CCNC2)CC1 [Example 131, (E/Z)-N-(3-CYANO-7-(1-METHYLPIPERIDIN-4-YL-OXY)-4-(6-(PHENOXYPYRIDIN-3-YL-AMINO)QUINOLIN-6-YL)-2-(PYRROLIDIN-3-YLIDENE)ACETAMIDE]
- IC50 (BxPc-3 cells): 306 nM

SMILES: C#Cc1cccc(Nc2c(C#N)cnc3cc(O[C@H]4CCOC4)c(NC(=O)/C=C/CN(CCO)CCO)cc23)c1 [Example 188, (S,E)-N-(3-CYANO-4-(3-ETHYNYLPHENYLAMINO)-7-(TETRAHYDROFURAN-3-YL-OXY)QUINOLIN-6-YL)-4-(DIETHANOLAMINO)-BUT-2-ENAMIDE]
- IC50 (NCI-H358 cells): 110 nM

SMILES: C#Cc1cccc(Nc2c(C#N)cnc3cc(O[C@H]4CCOC4)c(NC(=O)/C=C/CN(C)CCOC)cc23)c1 [Example 189, (S,E)-N-(3-CYANO-4-(3-ETHYNYLPHENYLAMINO)-7-(TETRAHYDROFURAN-3-YL-OXY)QUINOLIN-6-YL)-4-(N-METHYLMETHOXYETHYLAMINO)-BUT-2-ENAMIDE]
- IC50 (BT-474 cells): 108 nM
- inhibition at 1 µM (BT-474 cells; BT-474, 70 h, compound 1 μM, read-out: Growth Inhibition Ratio (%)): 85%
- IC50 (SK-OV-3 cells): 312 nM
- IC50 (MDA-MB-453 cells): 523 nM
